The record followed here is patent US8778964B2, “Hydroxy-substituted imidazo[1,2-a]-pyridinecarboxamides and their use” (Bayer Pharma Aktiengesellschaft, priority 2012, dated 2014).

By minimal effective concentration is commonly meant the smallest amount tested that counted as effective.

For the assay, the system named is recombinant guanylate cyclase reporter cell line. The experiment in a line: Action on recombinant guanylate cyclase reporter cell line (MEC). The format is cell-based. The note with it: in some cases mean values obtained from individual determinations. Put shortly: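 Cell-based reporter assay with recombinant guanylate cyclase expressed in a reporter cell line, per a published method. Activity reported as minimal effective concentration (MEC), in some cases as the mean of individual determinations.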

In the case of `CCOCC(CO)NC(=O)c1c(C)nc2c(OCc3c(F)cccc3F)cccn12` (single isomer, unassigned; ent-8) [Example 161, ent-8-[(2,6-Difluorobenzyl)oxy]-N-(1-ethoxy-3-hydroxypropan-2-yl)-2-methylimidazo[1,2-a]-pyridine-3-carboxamide (enantiomer A)], the minimal effective concentration was found to be 1 µM.
